Assay results: US7473783B2, “Bicyclic pyrazolo protein kinase modulators” (SGX Pharmaceuticals, Inc., priority 2003, dated 2009)

What was measured:
cAbl = molecular target: T1, cAbl (Mus musculus, UniProt P00520); assay: Abl kinase assay (PK/LDH coupled, NADH loss at 340 nm); assay type: biochemical; settings: Table 7; 10 μM ATP
T1 construct: 2 μg/mL Abl kinase domain; made in house; host or cells: E. coli BL21(DE3) strains
T1 sequence (P00520 242-493 limits assumed): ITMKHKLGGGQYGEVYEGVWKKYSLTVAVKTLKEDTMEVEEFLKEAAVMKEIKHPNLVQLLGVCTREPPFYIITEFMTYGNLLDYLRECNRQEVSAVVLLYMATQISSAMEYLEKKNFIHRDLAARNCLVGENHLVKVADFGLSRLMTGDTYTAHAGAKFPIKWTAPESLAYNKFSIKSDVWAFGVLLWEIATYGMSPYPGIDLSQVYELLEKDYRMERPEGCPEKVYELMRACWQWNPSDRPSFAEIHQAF
Excerpt: (§1) Although this example presents the use of the kinase domain of a mutant form of Abl T315I 0-P, the kinase assays may use various forms of mutant and wild type Abl, including, for example, the entire molecule, the kinase domain, or a portion thereof. The kinases used in the assays may also be of varying phophorylation states. In the present example, a mutant kinase at a zero phosphorylation state was used.
Materials: Abl substrate peptide=EAIYAAPFAKKK-OH (Biopeptide, SD CA); βNADH (Sigma CAT#N-8129, FW=709.4); 2M MgCl2; 1M HEPES buffer, pH 7.5; Phosphoenolpyruvate=PEP (Sigma CAT#P-7002, FW=234); Lactate dehydrogenase=LDH (Worthington Biochemical CAT#2756); Pyruvate Kinase=PK (Sigma CAT#P-9136); ATP (Sigma CAT#A-3377, FW=551); Greiner 384-well UV star plate; and Purified and unphosphorylated T315I Abl kinase domain (clone 5582d42PPt6p6).
Stock Solutions: 10 mM NADH (7.09 mg/mL in miliQH2O) make fresh daily; 10 mM Abl substrate peptide (13.4 mg/mL in miliQH2O) store at −20° C.; 100 mM HEPES buffer, pH 7.5 (5 mL 1M stock+45 mL miliQH2O); 100 mM MgCl2 (5 mL 2M MgCl2+95 ml dH2O); 100 mM PEP (23.4 mg/mL in dH2O) store at −20° C.; 10 mM ATP (5.51 mg/mL in dH2O) store at −20° C. (dilute 50 μL into total of 10 mL miliQH2O daily=50 μM ATP working stock); 1000 U/mL PK (U/mg varies with lot) flash-freeze under liquid N2 and store at −80° C.; and 1000 U/mL LDH (U/mg varies with lot) flash-freeze under liquid N2 and store at −80° C.
Standard Assay Setup for 384-well format (50 μl reaction): 300 μM NADH; 10 mM MgCl2; 2 mM PEP; 45 U/mL PK; 60 U/mL LDH; 200 μM Abl substrate peptide; 2.5 μL test compound (in DMSO); 2 μg/mL Abl kinase domain; 10 μM ATP; 100 mM HEPES buffer; QS with miliQ dH2O to 50 μL; Positive controls contained DMSO with no test compound. Negative controls contained 5 μl of 0.5M EDTA (50 mM in the assay). The dephosphorylated form of the c-Abl T315I mutant were used in the biochemical screening assays. The kinase reaction was initiated at time t=0 by the addition of ATP.
The activity was measured by following the time-dependent loss of NADH by absorbance spectroscopy at 340 nm. The linear portion of the resulting progress curve was then be analyzed by linear regression to get the activity in absorbance units/time, reported as the slope of that best fit line (moles/unit time can be calculated from using molar extinction coefficient for NADH at 340 nm, 6250M^−1cm^−1).
Data was analyzed using the equation: Z′=1-[3*(σ++σ−)/|μ+−μ−|], where μ denotes the mean and σ the standard deviation. The subscript designates positive or negative controls. The Z′ score for a robust screening assay should be ≧0.50. The typical threshold=μ+−3*σ+. Any value that falls below the threshold was designated a “hit”.
Dose response was analyzed using the equation: y=min+{(max−min)/(1+10^[compound]-logIC50)}, where y is the observed initial slope, max=the slope in the absence of inhibitor, min=the slope at infinite inhibitor, and the IC50 is the [compound] that corresponds to ½ the total observed amplitude (Amplitude=max−min).
To measure modulation, activation, or inhibition of AblKD, a test compound was added to the assay at a range of concentrations. Inhibitors may inhibit AblKD activity at an IC50 in the micromolar range, the nanomolar range, and, for example, in the subnanomolar range.
To measure the binding of a compound to Abl or AblKD, a test kit manufactured by Discoverx (Fremont, Calif.), ED—Staurosporine NSIP™ Enzyme Binding Assay Kit (see U.S. Pat. No. 5,643,734) was used.

[1] = molecular target: T2, RON kinase (M1254T activation loop mutant) (Homo sapiens, UniProt Q04912, M1254T); assay: RON Kinase-Glo assay; assay type: biochemical; settings: Table 9, 60 minutes to 120 minutes at RT
T2 construct: made in house
Excerpt: as §1, with “wild type MET and RON […],” for “the kinase domain of a mutant form of Abl T315I 0-P,”, “RON or MET,” for “Abl,”, “intracellular domain,” for “molecule,”, “case of RON,” for “present example,”
(§2) For the MET and RON assays, the Kinase-Glo® assay system (Promega) was used, which employs firefly luciferase to detect the amount of ATP following a kinase reaction. This assay system has two steps. First, the kinase reaction is run for a designated period of time. Next, an equivalent volume of Kinase-Glo reagent is added to quench the kinase reaction and detect the ATP remaining in the sample. The total light output is read by a plate-reading luminometer and the resulting signal is stable for 4 hours. Inhibition of kinase activity translates into lower ATP consumption and thus higher light output during the detection step.
(§3) Materials: Poly EY 4:1 (Sigma); MgCl2 (2M stock available from Lab Support); HEPES buffer, pH 7.5; Bovine serum albumin (Roche 92423420); ATP (Sigma CAT#A-3377, FW=551); White Costar 384-well flat-bottom plate (VWR 29444-088); and SGX RON kinase clone (M1254T activation loop mutant) or SGX MET kinase clone.
RON enzyme mix: 100 mM HEPES pH 7.5, 10 mM MgCl2, 1 mg/mL poly EY, 0.1% BSA, and 3-5 μg/mL RON kinase (depending on enzyme prep).
(§4) To each well of a multiwell plate was added 15 μL of the enzyme mix, 1 μL of compound at 20-times the desired final assay concentration (or DMSO for positive controls or 200 μM staurosporine for negative controls), and 4 μL of 50 μM ATP to start the reaction. The kinase was reaction to allowed to proceed for 60 minutes at RT for the MET assay. For the RON assay, the reaction proceeded at RT for 60 minutes to 120 minutes (depending on enzyme prep). 20 μL Kinase-Glo reagent was then added to each well. The reagent was incubated for at least 10 minutes before plate reading.
(§5) Data anlaysis was performed using methods similar to those described above in the Abl assay (Firepower®, Exegetix).

wild type MET kinase = molecular target: T3, wild type MET kinase (Homo sapiens, UniProt P08581); assay: MET Kinase-Glo assay; assay type: biochemical; settings: Table 9, 60 minutes at RT
T3 construct: made in house
Excerpt: as §1, with “wild type MET and RON […],” for “the kinase domain of a mutant form of Abl T315I 0-P,”, “RON or MET,” for “Abl,”, “intracellular domain,” for “molecule,”, “case of RON,” for “present example,”
as §2, §3
MET enzyme mix: 100 mM HEPES pH 7.5, 10 mM MgCl2, 0.3 mg/mL poly EY, 0.1% BSA, and 0.4 μg/mL MET kinase.
as §4, §5

THP cells = assay: Cell survival assay (96-well XTT / 384-well AlamarBlue), THP; assay type: cell-based; settings: Table 10; symbol in brackets; 72 hours
Protocol: (§6) Flt3 cell line selection was performed according to the following two known methodologies: Kelly, et al, Cancer Cell 1:421-32 (2002); and Ye, et al, Blood 100: 2941-2949 (2002). MV4-11 and THP cells are maintained in Iscove's Modified Dulbecco's Medium supplemented with 10% fetal bovine serum (FBS) and penicillin/streptomycin, Ba/F3 cells are maintained in RPMI 1640 supplemented with 10% FBS, penicillin/streptomycin and 5ng/ml recombinant mouse IL-3.
(§7) Compounds were tested in both of the following assays in triplicates.
(§8) 96-well XTT assay: Cells are grown in their growth media containing various concentrations of compounds (triplicates) on a 96-well plate for 72 hours at 37° C. The starting cell number is 8000 cells per well and volume is 120 μl. At the end of the 72-hour incubation, 40μl of XTT labeling mixture (50:1 solution of sodium 3′-[1 -(pheylamino-carbonyl)-3,4-tetrazolium]-bis (4-methoxy-6-nitro)benzene sulfonic acid hydrate and Electron-coupling reagent: PMS (N-methyl dibenzopyrazine methyl sulfate) is added to each well of the plate. After additional 2 hours of incubation at 37° C., the absorbance reading at 405 nm with background correction at 650 nm is done using a spectrophotometer.
(§9) 384-well AlamarBlue assay: 90 μl of cell suspension is plated onto each well of a 384-well plate preprinted with 0.5 μl of compound in DMSO or DMSO only. The starting cell number is 4000 cells per well. After 72-hour incubation, 10 μl of AlamarBlue solution (440 μM resazurin in PBS) is then added to each well of the plate. After additional 2-hour incubation at 37° C., fluorescence is measured using a TECAN plate reading with excitation at 535 nm and emission 591 nm.

MV4-11 cells = assay: Cell survival assay (96-well XTT / 384-well AlamarBlue), MV4-11; assay type: cell-based; settings: Homo sapiens, Table 10, symbol outside brackets, 72 hours
Protocol: as §6, §7, §8, §9

T2 sequence (Q04912 25-1400 M1254T): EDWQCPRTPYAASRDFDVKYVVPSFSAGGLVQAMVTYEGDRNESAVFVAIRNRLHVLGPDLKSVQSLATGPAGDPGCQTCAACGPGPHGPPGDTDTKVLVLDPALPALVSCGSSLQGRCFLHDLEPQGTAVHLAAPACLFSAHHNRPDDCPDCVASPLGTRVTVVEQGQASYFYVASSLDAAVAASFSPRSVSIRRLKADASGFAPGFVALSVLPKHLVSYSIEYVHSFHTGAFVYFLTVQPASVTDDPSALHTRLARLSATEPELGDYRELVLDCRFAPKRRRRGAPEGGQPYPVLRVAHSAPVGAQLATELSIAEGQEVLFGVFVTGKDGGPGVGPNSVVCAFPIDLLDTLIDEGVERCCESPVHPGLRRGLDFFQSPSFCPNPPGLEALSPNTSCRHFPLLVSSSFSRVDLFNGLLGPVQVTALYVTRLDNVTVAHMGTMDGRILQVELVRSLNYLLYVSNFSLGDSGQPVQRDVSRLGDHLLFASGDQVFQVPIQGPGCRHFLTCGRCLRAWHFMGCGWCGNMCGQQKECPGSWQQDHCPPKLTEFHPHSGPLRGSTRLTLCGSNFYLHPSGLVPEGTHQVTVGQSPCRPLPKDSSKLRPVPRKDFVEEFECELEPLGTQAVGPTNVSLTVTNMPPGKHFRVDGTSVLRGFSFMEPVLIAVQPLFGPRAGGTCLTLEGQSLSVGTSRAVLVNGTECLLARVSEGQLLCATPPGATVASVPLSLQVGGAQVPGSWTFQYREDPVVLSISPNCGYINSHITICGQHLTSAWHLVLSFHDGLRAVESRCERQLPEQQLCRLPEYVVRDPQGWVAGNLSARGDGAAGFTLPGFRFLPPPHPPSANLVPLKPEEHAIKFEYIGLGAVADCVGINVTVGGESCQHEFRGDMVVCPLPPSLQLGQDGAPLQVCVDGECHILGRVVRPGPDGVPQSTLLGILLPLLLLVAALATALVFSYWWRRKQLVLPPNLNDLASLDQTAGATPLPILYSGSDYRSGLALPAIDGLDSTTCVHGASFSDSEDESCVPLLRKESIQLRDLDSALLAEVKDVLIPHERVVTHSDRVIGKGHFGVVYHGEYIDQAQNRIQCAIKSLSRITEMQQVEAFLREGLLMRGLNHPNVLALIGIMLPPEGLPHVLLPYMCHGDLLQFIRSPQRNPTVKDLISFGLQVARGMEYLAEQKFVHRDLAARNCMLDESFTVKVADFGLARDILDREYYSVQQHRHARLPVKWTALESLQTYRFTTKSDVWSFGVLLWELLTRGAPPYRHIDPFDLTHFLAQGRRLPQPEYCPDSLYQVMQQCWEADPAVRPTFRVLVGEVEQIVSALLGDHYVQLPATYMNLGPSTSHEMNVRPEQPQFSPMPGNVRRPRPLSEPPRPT
T3 sequence (P08581 25-1390): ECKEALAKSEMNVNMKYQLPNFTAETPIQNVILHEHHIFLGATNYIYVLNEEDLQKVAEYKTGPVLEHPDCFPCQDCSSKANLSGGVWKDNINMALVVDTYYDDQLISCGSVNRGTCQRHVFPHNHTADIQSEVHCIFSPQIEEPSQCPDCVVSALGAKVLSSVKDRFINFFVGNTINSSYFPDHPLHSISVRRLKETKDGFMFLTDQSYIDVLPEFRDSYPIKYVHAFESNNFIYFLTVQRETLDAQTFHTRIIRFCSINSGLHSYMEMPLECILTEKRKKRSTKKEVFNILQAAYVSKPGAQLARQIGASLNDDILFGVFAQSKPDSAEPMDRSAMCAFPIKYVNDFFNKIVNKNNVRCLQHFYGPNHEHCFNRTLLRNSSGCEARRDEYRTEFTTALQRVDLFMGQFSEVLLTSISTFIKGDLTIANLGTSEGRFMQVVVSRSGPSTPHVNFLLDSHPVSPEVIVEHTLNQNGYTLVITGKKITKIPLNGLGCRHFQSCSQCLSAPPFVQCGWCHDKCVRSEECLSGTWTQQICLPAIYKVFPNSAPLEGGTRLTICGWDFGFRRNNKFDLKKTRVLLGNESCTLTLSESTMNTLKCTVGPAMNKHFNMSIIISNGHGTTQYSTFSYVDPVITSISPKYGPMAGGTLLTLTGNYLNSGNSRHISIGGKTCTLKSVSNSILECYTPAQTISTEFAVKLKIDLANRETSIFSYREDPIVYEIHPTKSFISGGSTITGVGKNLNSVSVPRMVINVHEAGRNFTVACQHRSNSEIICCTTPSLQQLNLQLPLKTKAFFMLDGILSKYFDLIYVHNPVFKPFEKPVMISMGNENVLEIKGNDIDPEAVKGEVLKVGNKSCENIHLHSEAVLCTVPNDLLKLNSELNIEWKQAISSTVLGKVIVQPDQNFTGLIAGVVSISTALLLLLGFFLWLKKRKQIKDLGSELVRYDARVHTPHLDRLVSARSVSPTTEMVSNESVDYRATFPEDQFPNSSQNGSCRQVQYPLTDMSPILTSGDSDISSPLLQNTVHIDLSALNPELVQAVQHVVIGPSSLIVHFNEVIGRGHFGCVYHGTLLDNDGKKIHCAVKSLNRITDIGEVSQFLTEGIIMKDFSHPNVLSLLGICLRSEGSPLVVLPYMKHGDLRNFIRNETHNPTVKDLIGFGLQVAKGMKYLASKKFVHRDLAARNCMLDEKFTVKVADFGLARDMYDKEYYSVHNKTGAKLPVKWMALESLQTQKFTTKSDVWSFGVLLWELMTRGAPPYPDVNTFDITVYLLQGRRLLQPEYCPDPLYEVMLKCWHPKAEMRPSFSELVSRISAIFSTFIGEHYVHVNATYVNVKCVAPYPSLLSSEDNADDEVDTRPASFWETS

| Structure (SMILES) | IC50 (cAbl) [µM] | IC50 [1] [µM] | IC50 (wild type MET kinase) [µM] | other results |
| --- | --- | --- | --- | --- |
| Nc1nc2[nH]nc(-c3ccccc3)c2s1 | 11 to 100 | – | – | – |
| O=C(Nc1nc2[nH]nc(-c3cccc(Cl)c3)c2s1)c1ccccc1 | 1 to 10 | – | – | – |
| O=C(Nc1nc2[nH]nc(-c3ccccn3)c2s1)c1ccccc1 | 11 to 100 | – | – | – |
| COc1ccc(-c2n[nH]c3nc(NC(=O)c4ccccc4)sc23)cc1 | 11 to 100 | – | – | – |
| O=C(Cc1cccs1)Nc1nc2[nH]nc(-c3ccccc3)c2s1 | < 1 | – | – | – |
| CC(C)C(=O)Nc1nc2[nH]nc(-c3ccccc3Cl)c2s1 | – | 5 to 20 | < 5 | – |
| COc1cccc(OC)c1C(=O)Nc1nc2[nH]nc(-c3ccccc3Cl)c2s1 | – | 5 to 20 | 5 to 20 | – |
| CC(=O)O[C@@H](C)C(=O)Nc1nc2[nH]nc(-c3ccccc3Cl)c2s1 | – | > 20 | > 20 | – |
| O=C(Nc1nc2[nH]nc(-c3ccccc3)c2s1)c1ccco1 [drawing 264] | < 1 | – | – | – |
| O=C(Nc1nc2[nH]nc(-c3ccc(O)cc3)c2s1)C1CC1 [drawing 274] | – | 5 to 20 | < 5 | – |
| O=C(Nc1nc2[nH]nc(-c3ccccc3Cl)c2s1)C1CC1 [drawing 276] | – | 5 to 20 | < 5 | – |
| O=C(Nc1nc2[nH]nc(-c3ccccc3Br)c2s1)C1CC1 [drawing 278] | – | > 20 | 5 to 20 | – |
| COc1ccc(-c2n[nH]c3nc(NC(=O)C4CC4)sc23)cc1 [drawing 280] | – | > 20 | > 20 | – |
| O=C(Nc1nc2[nH]nc(-c3ccc(Cl)cc3)c2s1)c1ccccc1 [drawing 281] | – | – | – | IC50 (THP cells): 11 to 100 µM; IC50 (MV4-11 cells): 1 to 10 µM |
| O=C(Nc1nc2[nH]nc(-c3ccccc3)c2s1)c1ccncc1 [drawing 282] | – | – | – | IC50 (THP cells): 11 to 100 µM; IC50 (MV4-11 cells): 1 to 10 µM |
| COCCOCC(=O)Nc1nc2[nH]nc(-c3ccccc3)c2s1 [drawing 283] | – | – | – | IC50 (THP cells): 11 to 100 µM; IC50 (MV4-11 cells): 1 to 10 µM |
| CC(=O)N1CCC(C(=O)Nc2nc3[nH]nc(-c4ccccc4)c3s2)CC1 [drawing 284] | – | – | – | IC50 (THP cells): 11 to 100 µM; IC50 (MV4-11 cells): 1 to 10 µM |
